Measurements from ChEMBL document CHEMBL1131655 (Bioorg Med Chem Lett, 1998).

Key:
[1] = molecular target: T1, Adenosine receptor A1 (Homo sapiens) (UniProt P30542); experiment: Percentage extracellular acidification rate was evaluated against human adenosine A1 receptor expressed in CHO-K1 cells; type: functional, cell-based
T1 sequence (whole entry): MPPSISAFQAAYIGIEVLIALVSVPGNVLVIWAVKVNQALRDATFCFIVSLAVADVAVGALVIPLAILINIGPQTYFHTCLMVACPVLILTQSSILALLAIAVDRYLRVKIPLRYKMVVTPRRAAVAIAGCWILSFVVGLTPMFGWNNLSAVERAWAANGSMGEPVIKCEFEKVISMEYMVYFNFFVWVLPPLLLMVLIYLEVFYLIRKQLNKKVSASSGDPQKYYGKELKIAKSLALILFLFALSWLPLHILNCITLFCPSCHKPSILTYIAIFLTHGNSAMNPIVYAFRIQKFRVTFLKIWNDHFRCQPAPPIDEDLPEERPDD

Adenosine receptor A1 [2] = molecular target: T2, Adenosine receptor A1 (Rattus norvegicus, UniProt P25099); experiment: Binding affinity against adenosine A1 receptor in rat brain using [3H]R-PIA; type: tissue-based
T2 sequence (P25099 whole entry): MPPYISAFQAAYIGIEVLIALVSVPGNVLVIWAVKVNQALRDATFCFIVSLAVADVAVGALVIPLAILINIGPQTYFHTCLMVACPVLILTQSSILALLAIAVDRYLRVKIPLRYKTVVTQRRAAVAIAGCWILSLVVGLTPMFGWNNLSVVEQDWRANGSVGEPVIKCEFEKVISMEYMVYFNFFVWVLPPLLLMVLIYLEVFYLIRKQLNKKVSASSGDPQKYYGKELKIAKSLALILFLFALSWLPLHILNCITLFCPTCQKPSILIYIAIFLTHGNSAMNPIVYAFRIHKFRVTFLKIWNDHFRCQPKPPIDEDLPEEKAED

[3] = molecular target: T1, Adenosine receptor A1 (Homo sapiens); experiment: Emax for R-PIA against Human Adenosine A1 receptor
Adenosine receptor A1 [4] = molecular target: T3, Adenosine receptor A1 (Homo sapiens, UniProt P30542); experiment: Binding against Human Adenosine A1 receptor
T3 sequence (P30542 whole entry): T1 sequence (whole entry)

Compound | ECAR [1] | Ki (Adenosine receptor A1 [2]) | Emax [3] | EC50 (Adenosine receptor A1 [4])
OC[C@@H]1OC(n2cnc3c2N=CN2C[C@H](c4ccccc4)N=C32)[C@@H](O)[C@H]1O (stereo partly drawn) | 106% |  |  | 
NC1=Nc2c(ncn2C2O[C@@H](CO)[C@H](O)[C@@H]2O)C2=N[C@@H](c3ccccc3)CN12 (stereo partly drawn) | 117% | 610 nM |  | 
OC[C@@H]1OC(n2cnc3c2N=CN2C[C@@H](c4ccccc4)N=C32)[C@@H](O)[C@H]1O (stereo partly drawn) | 113% |  |  | 
NC1=Nc2c(ncn2C2O[C@@H](CO)[C@H](O)[C@@H]2O)C2=N[C@H](c3ccccc3)CN12 (stereo partly drawn) | 122% | 1020 nM | 90% | 100000 nM
